Results reported in patent US5656591A, “Antimicrobial agents and method for treating products therewith” (Morinaga Milk Industry Co., Ltd., priority 1992, dated 1997).

Key:
[1] = test system: methicillin-resistant Staphylococcus aureus (wild type); assay: Viability assay in Mueller-Hington Broth on antibiotics-resistant microorganism; type: cell-based
Method: (§1) Precultures of test microorganisms to be used in the tests described hereunder were prepared in such a manner that: from the frozen preservation of dispersions of test microorganisms, a loop of the respective strains of the microorganisms were taken out and spread onto TRI PETIT CASE SOYA AGAR MEDIA (by BBL Company), and incubated at 37° C. for 16 hours; the colonies grown on the culture media were scraped by a platinum loop and cultivated in 2.1% Mueller-Hington Broth (by Difco Company) respectively for several hours at 37° C. The resultant microbial cultures at logarithmic phase in 3×10^8 /ml of microbial concentration were used as the precultures.
(§2) The test media to be used in the respective tests were prepared in such a manner that: aqueous solutions in a predetermined concentration of the lactoferrin hydrolysates or the lactoferrin-derived antimicrobial peptides of (1) and (2) in Preparation of Samples (supra), as well as the samples of antibiotics of (3) (supra) were respectively sterilized with filters (by Advantec Company); then a quantity of the resultant solutions of respective samples were selectively added to a quantity of basal medium (Mueller-Hington Broth) prepared in the eventual concentration of 2.1%, thereby combinations of the samples and their concentrations in the respective test media were adjusted as specified in the respective tests. […]

[2] = test system: Staphylocoecus aureus (JCM-2151); assay: Viability assay in Mueller-Hington Broth; type: cell-based, Staphylococcus aureus
Method: as §1, §2

[3] = test system: Staphylococcus aureus JCM2151; assay: Test for antimicrobial activity (turbidity): growth inhibiting concentration of antibiotics; type: cell-based; settings: for MIC: Staphylococcus aureus
Method: as §1
(§3) The test media to be used in the respective tests were prepared in such a manner that: aqueous solutions in a predetermined concentration of the lactoferrin hydrolysates or the lactoferrin-derived antimicrobial peptides of (1) and (2) in Preparation of Samples (supra), as well as the samples of antibiotics of (3) (supra) were respectively sterilized with filters (by Advantec Company); then a quantity of the resultant solutions of respective samples were selectively added to a quantity of basal medium (Mueller-Hington Broth) prepared in the eventual concentration of 2.1%, thereby combinations of the samples and their concentrations in the respective test media were adjusted as specified in the respective tests.
(§4) Antimicrobial activity was examined as follows: A quantity of the respective precultures prepared in (1) immediately above was diluted with 2.1% Mueller-Hington Broth to result in 2×10^6 /ml of microbial concentration; 100 μl aliquots of the resultant liquid were added to 100 μl aliquots of one of the test media as specified in the respective test; the resultant media were incubated at 37° C. for 16 hours; then the turbidity of the resultant culture broths were measured thereby antimicrobial activity was examined.
(§5) Components in the test and control media and eventual concentrations thereof were adjusted by properly combining 0 mg, 0.4 mg, 1.6 mg and 6.4 mg/ml of lactoferrin hydrolysate of (1) (in Preparation of Samples, supra). or 0 μg, 16 μg, 64 μg, and 256 μg/ml of lactoferrin-derived antimicrobial peptides of (2) (in Preparation of Samples, supra), and 0 μg, 0.01 μg, 0.1 μg, 1 μg, and 10 μg/ml of antibiotics of (3) (supra), then antimicrobial activity of the combined use of the components against Escherichia coli 0-111 and Staphylococcus aureus (JCM2151) as well as growth inhibiting concentrations of the antibiotics were investigated.

Escherichia coli 0-111 = assay: as above; type: cell-based
Method: as §1, §3, §4, §5

[4] = JCM2151, antimicrobial peptide (Seq. ID No. 27) 0 μg/ml
[5] = JCM2151, antimicrobial peptide (Seq. ID No. 27) 16 μg/ml
[6] = JCM2151, antimicrobial peptide (Seq. ID No. 27) 64 μg/ml
[7] = JCM2151, antimicrobial peptide (Seq. ID No. 27) 256 μg/ml
[8] = lactoferrin hydrolysate 0 mg/ml
[9] = lactoferrin hydrolysate 0.4 mg/ml
[10] = lactoferrin hydrolysate 1.6 mg/ml
[11] = lactoferrin hydrolysate 6.4 mg/ml
[12] = Escherichia coli, 0111, antimicrobial peptide (Seq. ID No. 27) 0 μg/ml
[13] = Escherichia coli, 0111, antimicrobial peptide (Seq. ID No. 27) 16 μg/ml
[14] = Escherichia coli, 0111, antimicrobial peptide (Seq. ID No. 27) 64 μg/ml
[15] = Escherichia coli, 0111, antimicrobial peptide (Seq. ID No. 27) 256 μg/ml

| SMILES | survival rate ([1]; Test 24: peptide 0, minomycin 10 μg/ml) | survival rate ([1]; Test 24: peptide 0, minomycin 50 μg/ml) | survival rate ([2]; Test 25: penicillin 1 μg/ml alone (control row)) | MIC [3, 4] | MIC [3, 5] | MIC [3, 6] | MIC [3, 7] | Growth inhibiting Concentration of antibiotics [3, 8] | Growth inhibiting Concentration of antibiotics [3, 9] | Growth inhibiting Concentration of antibiotics [3, 10] | Growth inhibiting Concentration of antibiotics [3, 11] | MIC (Escherichia coli 0-111; [12]) | MIC (Escherichia coli 0-111; [13]) | MIC (Escherichia coli 0-111; [14]) | MIC (Escherichia coli 0-111; [15]) | Growth inhibiting Concentration of antibiotics (Escherichia coli 0-111; [8]) | Growth inhibiting Concentration of antibiotics (Escherichia coli 0-111; [9]) | Growth inhibiting Concentration of antibiotics (Escherichia coli 0-111; [10]) | Growth inhibiting Concentration of antibiotics (Escherichia coli 0-111; [11]) | survival rate ([2]; Test 25: streptomycin 1 μg/ml alone (control row)) |
| --- | --- | --- | --- | --- | --- | --- | --- | --- | --- | --- | --- | --- | --- | --- | --- | --- | --- | --- | --- | --- |
| CN(C)c1ccc(O)c2c1C[C@H]1C[C@H]3[C@H](N(C)C)C(O)=C(C(N)=O)C(=O)[C@@]3(O)C(O)=C1C2=O [minomycin] | 32% | 5.2% |  |  |  |  |  |  |  |  |  |  |  |  |  |  |  |  |  |  |
| CC1(C)S[C@@H]2[C@H](NC(=O)Cc3ccccc3)C(=O)N2[C@H]1C(=O)O [penicillin] |  |  | 14.2% | > 1 µg/mL | 1 µg/mL | 1 µg/mL | 0.1 µg/mL | > 1 µg/mL | 1 µg/mL | 1 µg/mL | 0.1 µg/mL | > 1 µg/mL | > 1 µg/mL | 1 µg/mL | 0.1 µg/mL | > 1 µg/mL | 1 µg/mL | 1 µg/mL | 0.1 µg/mL |  |
| [H]/N=C(/N)N[C@H]1[C@H](O)[C@@H](O)[C@H](O[C@@H]2O[C@@H](C)[C@](O)(C=O)[C@H]2O[C@@H]2O[C@@H](CO)[C@H](O)[C@@H](O)[C@@H]2NC)[C@@H](N/C(N)=N\[H])[C@@H]1O [streptomycin] |  |  |  | > 1 µg/mL | > 1 µg/mL | 1 µg/mL | 0.01 µg/mL | > 1 µg/mL | > 1 µg/mL | 1 µg/mL | 0.1 µg/mL | > 1 µg/mL | > 1 µg/mL | 1 µg/mL | 0.01 µg/mL | > 1 µg/mL | > 1 µg/mL | 1 µg/mL | 0.01 µg/mL | 12.4% |
